Results: patent US8263605B2, “Modulators of muscarinic receptors” (Vertex Pharmaceutical Incorporated, priority 2006, dated 2012)

Assays:
[1] = target: T1, M4 muscarinic receptor (Homo sapiens, UniProt P08173); test: Functional mobilization of intracellular calcium (FLIPR), M4-CHO cells; type: cell-based; conditions: for Emax: 100% efficacy is the maximum response obtained with the Carbachol control; for M4 Activity: CHO cells expressing M4, calcium mobilization
T1 construct: expressed in transfected cells; host or cells: CHO (M4-CHO)
T1 sequence (P08173 1-479): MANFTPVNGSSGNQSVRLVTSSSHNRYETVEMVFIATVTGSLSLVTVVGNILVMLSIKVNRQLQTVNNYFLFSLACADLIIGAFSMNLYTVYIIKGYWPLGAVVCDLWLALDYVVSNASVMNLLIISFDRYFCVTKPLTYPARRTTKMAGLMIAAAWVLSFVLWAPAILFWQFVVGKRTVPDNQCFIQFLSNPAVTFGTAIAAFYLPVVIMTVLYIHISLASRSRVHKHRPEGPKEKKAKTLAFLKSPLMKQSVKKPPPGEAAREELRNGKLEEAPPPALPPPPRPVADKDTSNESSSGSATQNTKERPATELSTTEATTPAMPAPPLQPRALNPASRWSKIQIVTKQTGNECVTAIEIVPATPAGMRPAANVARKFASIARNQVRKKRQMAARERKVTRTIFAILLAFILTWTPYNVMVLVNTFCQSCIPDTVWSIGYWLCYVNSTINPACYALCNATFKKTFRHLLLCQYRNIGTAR
Procedure, shortened: (§1)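 Recombinant CHO cells loaded with Fluo-3 AM or Calcium 3 dye; fluorescence recorded 60 s on FLIPR in pH 7.4 buffer with 1 mM probenecid, 0.5% DMSO. Agonist mode: compound alone; antagonist mode: 15 min preincubation (or co-application) then carbachol at EC80. Efficacy relative to maximal carbachol response.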

[2] = target: T2, M1 muscarinic receptor (Homo sapiens, UniProt P11229); test: Functional mobilization of intracellular calcium (FLIPR), M1-CHO cells; type: cell-based; conditions: for Emax: 100% efficacy is the maximum response obtained with the Carbachol control; for M1 Activity: CHO cells expressing M1, calcium mobilization
T2 construct: expressed in transfected cells; host or cells: CHO (M1-CHO)
T2 sequence (P11229 1-460): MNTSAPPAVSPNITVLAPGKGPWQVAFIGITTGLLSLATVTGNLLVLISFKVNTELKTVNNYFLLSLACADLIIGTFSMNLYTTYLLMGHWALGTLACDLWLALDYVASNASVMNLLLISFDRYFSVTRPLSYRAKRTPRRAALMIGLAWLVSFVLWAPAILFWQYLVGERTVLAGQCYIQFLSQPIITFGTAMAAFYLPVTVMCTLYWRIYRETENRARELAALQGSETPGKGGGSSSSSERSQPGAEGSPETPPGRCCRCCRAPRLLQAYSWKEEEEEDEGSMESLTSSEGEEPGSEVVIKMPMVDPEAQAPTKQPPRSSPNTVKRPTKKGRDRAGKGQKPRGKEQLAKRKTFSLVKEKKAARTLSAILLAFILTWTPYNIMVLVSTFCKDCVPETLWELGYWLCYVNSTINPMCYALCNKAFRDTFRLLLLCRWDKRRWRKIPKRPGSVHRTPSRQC
Procedure, shortened: as §1

Compound | Emax [1] | M4 Activity [1] | Emax [2] | M1 Activity [2]
Cc1nsc(N2CC[C@H](CN3CCC4(CC3)CN(C(=O)N(C)C)c3ccccc34)C2)n1 [compound 83] | 25 to 100% | +++ (activity was measured to be less than 2.0 μM) | 25 to 100% | ++ (activity was measured to be from 2.0 μM to 10.0 μM)
CCc1nsc(N2CC[C@H](CN3CCC4(CC3)CN(C(=O)N(C)C)c3ccccc34)C2)n1 [compound 84] | 25 to 100% | +++ (activity was measured to be less than 2.0 μM) | 25 to 100% | +++ (activity was measured to be less than 2.0 μM)
Cc1nsc(N2CC[C@@H](CN3CCC4(CC3)CN(C(=O)N(C)C)c3ccccc34)C2)n1 [compound 85] | > 100% | +++ (activity was measured to be less than 2.0 μM) | 25 to 100% | +++ (activity was measured to be less than 2.0 μM)
CCc1nsc(N2CC[C@@H](CN3CCC4(CC3)CN(C(=O)N(C)C)c3ccccc34)C2)n1 [compound 86] | 25 to 100% | +++ (activity was measured to be less than 2.0 μM) | 25 to 100% | +++ (activity was measured to be less than 2.0 μM)
Cc1ncc(N2CC[C@H](CN3CCC4(CC3)CN(C(=O)N(C)C)c3ccccc34)C2)nc1C [compound 87] | 25 to 100% | +++ (activity was measured to be less than 2.0 μM) | < 25% | + (activity was measured to be greater than 10.0 μM)
Cc1ncc(N2CCC(N3CCC4(CC3)CN(C(=O)N(C)C)c3ccccc34)CC2)nc1C [compound 88] | 25 to 100% | +++ (activity was measured to be less than 2.0 μM) | 25 to 100% | ++ (activity was measured to be from 2.0 μM to 10.0 μM)
CN(C)C(=O)N1CC2(CCN(C3CCN(c4nncs4)CC3)CC2)c2ccccc21 [compound 89] | 25 to 100% | ++ (activity was measured to be from 2.0 μM to 10.0 μM) | < 25% | ++ (activity was measured to be from 2.0 μM to 10.0 μM)
CN(C)C(=O)N1CC2(CCN(C3CCN(c4nccs4)CC3)CC2)c2ccccc21 [compound 90] | 25 to 100% | ++ (activity was measured to be from 2.0 μM to 10.0 μM) | 25 to 100% | ++ (activity was measured to be from 2.0 μM to 10.0 μM)
Cc1csc(N2CCC(N3CCC4(CC3)CN(C(=O)N(C)C)c3ccccc34)CC2)n1 [compound 91] | 25 to 100% | +++ (activity was measured to be less than 2.0 μM) | 25 to 100% | ++ (activity was measured to be from 2.0 μM to 10.0 μM)
C#CCOC(=O)N1CCC(N2CCC3(CC2)CN(C(=O)N(C)C)c2ccccc23)CC1 [compound 92] | > 100% | +++ (activity was measured to be less than 2.0 μM) | > 100% | +++ (activity was measured to be less than 2.0 μM)
CCC#CCOC(=O)N1CCC(N2CCC3(CC2)CN(C(=O)N(C)C)c2ccccc23)CC1 [compound 93] | 25 to 100% | +++ (activity was measured to be less than 2.0 μM) | 25 to 100% | +++ (activity was measured to be less than 2.0 μM)
C#CCOC(=O)N1C2CCC1CC(N1CCC3(CC1)CN(C(=O)N(C)C)c1ccccc13)C2 (stereo not drawn) [compound 94] | 25 to 100% | +++ (activity was measured to be less than 2.0 μM) | 25 to 100% | +++ (activity was measured to be less than 2.0 μM)
CC#CCOC(=O)N1C2CCC1CC(N1CCC3(CC1)CN(C(=O)N(C)C)c1ccccc13)C2 (stereo not drawn) [compound 95] | 25 to 100% | +++ (activity was measured to be less than 2.0 μM) | 25 to 100% | +++ (activity was measured to be less than 2.0 μM)
CCOC(=O)N1CC[C@@H](CN2CCC3(CC2)CN(C(=O)N(C)C)c2ccccc23)C1 [compound 96] | > 100% | +++ (activity was measured to be less than 2.0 μM) | 25 to 100% | +++ (activity was measured to be less than 2.0 μM)
C#CCOC(=O)N1CC[C@@H](CN2CCC3(CC2)CN(C(=O)N(C)C)c2ccccc23)C1 [compound 97] | 25 to 100% | +++ (activity was measured to be less than 2.0 μM) | 25 to 100% | +++ (activity was measured to be less than 2.0 μM)
CC#CCOC(=O)N1CC[C@@H](CN2CCC3(CC2)CN(C(=O)N(C)C)c2ccccc23)C1 [compound 98] | 25 to 100% | +++ (activity was measured to be less than 2.0 μM) | 25 to 100% | +++ (activity was measured to be less than 2.0 μM)
CCC#CCOC(=O)N1CC[C@@H](CN2CCC3(CC2)CN(C(=O)N(C)C)c2ccccc23)C1 [compound 99] | > 100% | +++ (activity was measured to be less than 2.0 μM) | 25 to 100% | +++ (activity was measured to be less than 2.0 μM)
C#CCOC(=O)N1CC[C@H](CN2CCC3(CC2)CN(C(=O)N(C)C)c2ccccc23)C1 [compound 100] | 25 to 100% | +++ (activity was measured to be less than 2.0 μM) | 25 to 100% | +++ (activity was measured to be less than 2.0 μM)
CC#CCOC(=O)N1CC[C@H](CN2CCC3(CC2)CN(C(=O)N(C)C)c2ccccc23)C1 [compound 101] | > 100% | +++ (activity was measured to be less than 2.0 μM) | 25 to 100% | +++ (activity was measured to be less than 2.0 μM)
CCC#CCOC(=O)N1CC[C@H](CN2CCC3(CC2)CN(C(=O)N(C)C)c2ccccc23)C1 [compound 102] | > 100% | +++ (activity was measured to be less than 2.0 μM) | 25 to 100% | +++ (activity was measured to be less than 2.0 μM)
C#CCOC(=O)N1CCCC(N2CCC3(CC2)CN(C(=O)N(C)C)c2ccccc23)CC1 (stereo not drawn) [compound 104] | > 100% | +++ (activity was measured to be less than 2.0 μM) | > 100% | +++ (activity was measured to be less than 2.0 μM)
CC#CCOC(=O)N1CCCC(N2CCC3(CC2)CN(C(=O)N(C)C)c2ccccc23)CC1 (stereo not drawn) [compound 105] | > 100% | +++ (activity was measured to be less than 2.0 μM) | > 100% | +++ (activity was measured to be less than 2.0 μM)
CCC#CCOC(=O)N1CCCC(N2CCC3(CC2)CN(C(=O)N(C)C)c2ccccc23)CC1 (stereo not drawn) [compound 106] | 25 to 100% | +++ (activity was measured to be less than 2.0 μM) | 25 to 100% | +++ (activity was measured to be less than 2.0 μM)
CCOC(=O)N1CCCC(N2CCC3(CC2)CN(C(=O)N(C)C)c2ccccc23)CCC1 [compound 107] | > 100% | +++ (activity was measured to be less than 2.0 μM) | > 100% | +++ (activity was measured to be less than 2.0 μM)
